Assay results taken from US20240051955A1, “4-AMINO-3-(4-PHENOXYPHENYL)-1,3-DIHYDRO-2H-IMIDAZO[4,5-C]PYRIDIN-2-ONE DERIVATIVES AND SALTS THEREOF” (Genzyme Corporation, priority 2020, published 2024).

How the values were obtained:
BTK(h) = BTK(h) (Homo sapiens (Human), UniProt Q06187); experiment: BTK(h) kinase activity study; assay type: biochemical; conditions: no pre-incubation of compound with enzyme/substrate mix prior to ATP addition
Method: Compounds of Formula Ib, Formula II, and Formula III were tested against BTK(h) as described herein. All compounds tested were prepared to a working stock of 50× final assay concentration in 100% DMSO. Where appropriate, more concentrated stocks were diluted manually to 50× using 100% DMSO. Compounds, which were powders, were reconstituted to a 10 mM stock in 100% DMSO before further dilution to 50×.
The required volume of the 50× stock of test compound was added to the assay well before a reaction mix containing the enzyme and substrate was added. The reaction was initiated by the addition of ATP at the selected concentration. There was no pre-incubation of the compound with the enzyme/substrate mix prior to ATP addition.
Results are expressed as kinase activity remaining, as a percentage of the DMSO control. This is calculated using the following formula: […]
For IC50 determinations, data are analyzed using XLFit version 5.3 (ID Business Solutions). Sigmoidal dose-response (variable slope) curves are fit based on the mean result for each test concentration using non-linear regression analysis. Where the top and/or bottom of the curve fall >10% out with 100 and 0, respectively, either or both of these limits may be constrained at 100 and 0, provided that the QC criterion on R^2 is met.

Dopamine transporter (h) = Dopamine transporter (h) (Homo sapiens (Human), UniProt Q01959); experiment: Dopamine transporter (h) binding assay, [3H]BTCP; conditions: Human recombinant (CHO cells); [3H]BTCP 4 nM; 120 min 4° C.
Method: (§1) Compounds of Formula Ia, Formula Ib, Formula III, Formula IV, and Formula V were tested in various in vitro assays. Compound binding was calculated as a % inhibition of the binding of a radioactively labeled ligand specific for each target. Compound enzyme inhibition effect was calculated as a % inhibition of control enzyme activity.
The general procedure is noted below. See Pristupa, Z. B. et al. (1994), Mol. Pharmacol., 45: 125-135. Minor variations to the experimental protocol described below may have occurred during the testing, but if so, they had no impact on the quality of the results obtained.

H2 (h) = H2 (h) (Homo sapiens (Human), UniProt P25021); experiment: H2 (h) binding assay, [125I]APT; conditions: Human recombinant (CHO cells); [125I]APT 0.075 nM; 120 min RT
δ (DOP) (h) = δ (DOP) (h) (Homo sapiens (Human), UniProt P41143); experiment: δ (DOP) (h) binding assay, [3H]DADLE; conditions: Human recombinant (Chem-1 (RBL) cells); [3H]DADLE 0.5 nM; 60 min RT
Method: as §1
The general procedure is noted below. See Simonin, F. et al. (1994), Mol. Pharmacol., 46: 1015-1021. Minor variations to the experimental protocol described below may have occurred during the testing but if so, they had no impact on the quality of the results obtained.

kappa (h) (KOP) = kappa (h) (KOP) (Homo sapiens (Human), UniProt P41145); experiment: kappa (h) (KOP) binding assay, [3H]U69593; conditions: Human recombinant (RBL cells); [3H]U69593 0.5 nM; 60 min RT
Method: as §1
The general procedure is noted below. See Simonin, F. et al. (1995), Proc. Natl. Acad. Sci. U.S.A., 92: 7006-7010. Minor variations to the experimental protocol described below may have occurred during the testing but if so, they had no impact on the quality of the results obtained.

5-HT5a (h) = 5-HT5a (h) (Homo sapiens (Human), UniProt P47898); experiment: 5-HT5a (h) binding assay, [3H]LSD; conditions: Human recombinant (HEK-293 cells); [3H]LSD 1.5 nM; 120 min 37° C.
Method: as §1
The general procedure is noted below. See Rees, S. et al. (1994), FEBS Lett., 355: 242-246. Minor variations to the experimental protocol described below may have occurred during the testing but if so, they had no impact on the quality of the results obtained.

[1] = target: Norepinephrine transporter (h) (Homo sapiens (Human), UniProt P23975); experiment: Norepinephrine transporter (h) binding assay, [3H]nisoxetine; conditions: Human recombinant (CHO cells); [3H]nisoxetine 1 nM; 120 min 4° C.
Method: as §1
The general procedure is noted below. See Pacholczyk, T. et al. (1991), Nature, 350: 350-354. Minor variations to the experimental protocol described below may have occurred during the testing but if so, they had no impact on the quality of the results obtained.

BTK(h), sequence (Q06187 whole entry): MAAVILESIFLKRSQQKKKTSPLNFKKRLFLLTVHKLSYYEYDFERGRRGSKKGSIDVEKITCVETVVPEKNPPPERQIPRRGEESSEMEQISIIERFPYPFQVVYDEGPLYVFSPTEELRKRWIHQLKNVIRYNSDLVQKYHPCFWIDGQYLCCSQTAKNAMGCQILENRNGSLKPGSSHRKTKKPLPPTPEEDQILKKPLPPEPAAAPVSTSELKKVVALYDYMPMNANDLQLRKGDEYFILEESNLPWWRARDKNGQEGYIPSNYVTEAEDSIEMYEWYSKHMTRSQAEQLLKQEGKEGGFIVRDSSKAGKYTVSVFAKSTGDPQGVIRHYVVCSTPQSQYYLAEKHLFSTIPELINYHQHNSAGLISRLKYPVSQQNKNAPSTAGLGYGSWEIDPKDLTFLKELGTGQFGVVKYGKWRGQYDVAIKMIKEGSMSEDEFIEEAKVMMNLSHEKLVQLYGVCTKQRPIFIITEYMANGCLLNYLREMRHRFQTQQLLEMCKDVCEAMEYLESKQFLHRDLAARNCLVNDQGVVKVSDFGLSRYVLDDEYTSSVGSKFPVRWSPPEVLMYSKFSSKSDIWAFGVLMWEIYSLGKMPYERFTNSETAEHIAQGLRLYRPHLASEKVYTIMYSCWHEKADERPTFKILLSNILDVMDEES
Dopamine transporter (h), sequence (Q01959 whole entry): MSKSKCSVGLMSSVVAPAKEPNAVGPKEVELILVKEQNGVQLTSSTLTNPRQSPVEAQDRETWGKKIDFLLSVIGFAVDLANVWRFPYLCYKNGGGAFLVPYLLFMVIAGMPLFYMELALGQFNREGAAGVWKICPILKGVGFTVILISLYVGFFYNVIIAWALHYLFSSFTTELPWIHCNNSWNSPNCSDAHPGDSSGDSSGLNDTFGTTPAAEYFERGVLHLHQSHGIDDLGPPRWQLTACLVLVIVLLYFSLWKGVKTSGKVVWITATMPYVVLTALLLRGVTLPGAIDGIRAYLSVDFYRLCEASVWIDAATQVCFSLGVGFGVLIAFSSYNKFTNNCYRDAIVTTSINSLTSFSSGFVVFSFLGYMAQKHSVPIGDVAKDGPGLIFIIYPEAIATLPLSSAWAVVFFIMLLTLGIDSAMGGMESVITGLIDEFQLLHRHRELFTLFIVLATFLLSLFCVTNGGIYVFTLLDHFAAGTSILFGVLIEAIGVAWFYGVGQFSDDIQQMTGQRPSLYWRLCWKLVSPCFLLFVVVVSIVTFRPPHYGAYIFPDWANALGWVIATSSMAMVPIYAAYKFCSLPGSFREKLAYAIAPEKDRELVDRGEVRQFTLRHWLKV
δ (DOP) (h), sequence (P41143 whole entry): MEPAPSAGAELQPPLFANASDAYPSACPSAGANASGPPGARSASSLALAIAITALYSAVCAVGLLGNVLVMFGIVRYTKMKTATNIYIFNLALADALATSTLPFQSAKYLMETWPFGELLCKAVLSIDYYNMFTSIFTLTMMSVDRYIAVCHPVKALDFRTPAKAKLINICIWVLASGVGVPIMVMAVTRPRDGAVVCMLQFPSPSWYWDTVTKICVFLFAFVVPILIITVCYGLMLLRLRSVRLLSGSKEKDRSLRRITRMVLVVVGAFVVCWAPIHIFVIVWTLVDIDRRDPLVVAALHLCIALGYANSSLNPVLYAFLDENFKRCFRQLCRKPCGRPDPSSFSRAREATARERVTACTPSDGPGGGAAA
H2 (h), sequence (P25021 whole entry): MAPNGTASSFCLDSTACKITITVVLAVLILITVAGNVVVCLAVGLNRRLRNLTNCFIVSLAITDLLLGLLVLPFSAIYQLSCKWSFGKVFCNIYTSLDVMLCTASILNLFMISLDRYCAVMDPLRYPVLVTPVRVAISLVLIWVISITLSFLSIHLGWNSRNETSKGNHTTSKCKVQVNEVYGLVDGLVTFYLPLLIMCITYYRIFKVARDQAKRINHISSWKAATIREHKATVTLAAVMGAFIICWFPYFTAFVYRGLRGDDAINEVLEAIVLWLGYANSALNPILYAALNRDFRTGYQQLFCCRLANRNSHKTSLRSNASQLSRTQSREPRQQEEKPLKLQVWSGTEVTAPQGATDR
kappa (h) (KOP), sequence (P41145 whole entry): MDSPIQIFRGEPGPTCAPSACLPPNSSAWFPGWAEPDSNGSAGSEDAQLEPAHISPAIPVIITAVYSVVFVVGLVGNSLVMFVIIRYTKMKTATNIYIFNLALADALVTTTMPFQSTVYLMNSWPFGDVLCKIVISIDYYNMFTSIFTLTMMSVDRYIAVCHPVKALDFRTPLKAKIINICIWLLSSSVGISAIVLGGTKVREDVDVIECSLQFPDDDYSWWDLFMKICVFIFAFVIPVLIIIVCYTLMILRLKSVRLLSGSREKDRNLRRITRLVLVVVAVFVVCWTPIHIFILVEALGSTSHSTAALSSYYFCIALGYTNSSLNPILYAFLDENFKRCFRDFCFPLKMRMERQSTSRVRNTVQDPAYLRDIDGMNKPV
5-HT5a (h), sequence (P47898 whole entry): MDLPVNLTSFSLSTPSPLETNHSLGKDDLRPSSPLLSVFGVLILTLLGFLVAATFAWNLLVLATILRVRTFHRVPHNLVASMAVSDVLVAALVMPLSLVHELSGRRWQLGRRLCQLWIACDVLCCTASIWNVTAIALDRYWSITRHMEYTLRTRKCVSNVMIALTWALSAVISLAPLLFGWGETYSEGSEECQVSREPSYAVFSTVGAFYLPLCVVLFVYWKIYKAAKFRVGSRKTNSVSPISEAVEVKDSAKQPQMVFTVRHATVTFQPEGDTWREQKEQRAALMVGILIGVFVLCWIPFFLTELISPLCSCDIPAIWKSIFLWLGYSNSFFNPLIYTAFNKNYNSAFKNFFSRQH
Norepinephrine transporter (h), sequence (P23975 whole entry): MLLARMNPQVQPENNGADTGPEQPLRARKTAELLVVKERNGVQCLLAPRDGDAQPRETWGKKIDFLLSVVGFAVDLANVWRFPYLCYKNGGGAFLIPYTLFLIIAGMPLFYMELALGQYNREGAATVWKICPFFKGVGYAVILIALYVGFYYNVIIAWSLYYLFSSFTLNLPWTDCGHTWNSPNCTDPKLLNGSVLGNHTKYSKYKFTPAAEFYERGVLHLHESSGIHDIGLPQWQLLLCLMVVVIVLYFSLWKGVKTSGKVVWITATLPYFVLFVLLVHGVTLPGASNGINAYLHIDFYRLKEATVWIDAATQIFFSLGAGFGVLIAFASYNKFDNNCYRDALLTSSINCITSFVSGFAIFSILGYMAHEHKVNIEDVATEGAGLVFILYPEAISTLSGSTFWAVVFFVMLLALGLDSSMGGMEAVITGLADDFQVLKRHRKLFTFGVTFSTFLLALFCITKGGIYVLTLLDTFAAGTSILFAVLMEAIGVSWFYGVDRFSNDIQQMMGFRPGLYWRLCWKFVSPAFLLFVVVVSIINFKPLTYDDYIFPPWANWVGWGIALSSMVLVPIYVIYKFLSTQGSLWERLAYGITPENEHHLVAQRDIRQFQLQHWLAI

Row | IC50 (BTK(h)) [nM] | % inhibition of the binding of radioactively labeled ligand (Dopamine transporter (h)) [%] | % inhibition of the binding of radioactively labeled ligand (H2 (h)) [%] | % inhibition of the binding of radioactively labeled ligand (δ (DOP) (h)) [%] | % inhibition of the binding of radioactively labeled ligand (kappa (h) (KOP)) [%] | % inhibition of the binding of radioactively labeled ligand (5-HT5a (h)) [%] | % inhibition of the binding of radioactively labeled ligand [1] [%] | Structure (SMILES)
1 | 279 |  |  |  |  |  |  | Nc1nccc2c1n(-c1ccc(Oc3ccccc3)cc1)c(=O)n2[C@@H]1CCCN(C(=O)C(O)CO)C1 (stereo partly drawn) [Formula II, 4-amino-3-(4-phenoxyphenyl)-1-[(3R)-1-(2,3-dihydroxypropanoyl)-3-piperidyl]imidazo[4,5-c]pyridin-2-one]
2 | 1380 | 96.2 | 56.7 | 56.7 | 54.6 | 56.1 | 66.7 | Nc1nccc2c1n(-c1ccc(Oc3ccccc3)cc1)c(=O)n2[C@@H]1CCCNC1 [Formula III]
3 |  | 65 |  |  |  |  |  | C=CC(=O)N1C[C@@H](O)C[C@@H](n2c(=O)n(-c3ccc(Oc4ccccc4)cc3)c3c(N)nccc32)C1 [Formula Ia, 4-amino-1-[(3R,5S)-5-hydroxy-1-prop-2-enoyl-3-piperidyl]-3-(4-phenoxyphenyl)imidazo[4,5-c]pyridin-2-one]
4 | 34 |  |  |  |  |  |  | C=CC(=O)N1C[C@H](O)C[C@@H](n2c(=O)n(-c3ccc(Oc4ccccc4)cc3)c3c(N)nccc32)C1 [Formula Ib, 4-amino-1-[(3R,5R)-5-hydroxy-1-prop-2-enoyl-3-piperidyl]-3-(4-phenoxyphenyl)imidazo[4,5-c]pyridin-2-one]
